Reference: article PMC8286840, “Identifying SARS-CoV-2 antiviral compounds by screening for small molecule inhibitors of Nsp3 papain-like protease” (Biochemical Journal, 2021)
Structures can show the parent of a compound that is named as a salt. Where two headings read alike, the source gives them in different places.

Columns and labels:
[1] = target: T1, SARS-CoV-2 PLpro (nsp3 1564–1878) (Severe acute respiratory syndrome coronavirus 2, UniProt P0DTD1); experiment: biochemical; design: FRET-quenched peptide (Pro3) cleavage by PLpro, 10 min pre-incubation, slope over 20 min, normalised to no-compound control; details: low concentration screen, read-out: % of control remaining
[2] = target: T1, SARS-CoV-2 PLpro (nsp3 1564–1878); experiment: biochemical; design: FRET-quenched peptide (Pro3) cleavage by PLpro, 10 min pre-incubation, slope over 20 min, normalised to no-compound control; details: high concentration screen, read-out: % of control remaining

`C[C@@H]1O[C@@H](Oc2c(-c3cc(O)c(O)c(O)c3)oc3cc(O)cc(O)c3c2=O)[C@H](O)[C@H](O)[C@H]1O` [Myricitrin] gave a remaining activity at 1.25 µM ([1]; Well no.=3343) of 95.5% and a remaining activity at 3.75 µM ([2]; Well no.=3343) of 97.9%.
In the case of `CCCCCCC(=O)CCCCCC/C=C/C[C@@H](O)[C@H](O)[C@@](N)(CO)C(=O)O` [Myriocin], the remaining activity at 1.25 µM ([1]; Well no.=3417) is reported as 99.6% and the remaining activity at 3.75 µM ([2]; Well no.=3417) is reported as 101%.
`CCCCCCCCCCCCCC(=O)O` [Myristic acid] showed a remaining activity at 1.25 µM ([1]; Well no.=6979) of 101% and a remaining activity at 3.75 µM ([2]; Well no.=6979) of 102%.
With `C=CCc1cc(OC)c2c(c1)OCO2` [Myristicin] the remaining activity at 1.25 µM ([1]; Well no.=3473) was 99% and the remaining activity at 3.75 µM ([2]; Well no.=3473) was 99.9%.
With `CN(C)c1nc2c(ncn2[C@@H]2O[C@H](CO)[C@@H](O)[C@H]2O)c(=O)[nH]1` [N2,N2-Dimethylguanosine] the remaining activity at 1.25 µM ([1]; Well no.=6969) was 105%, the remaining activity at 1.25 µM ([1]; Well no.=7820) was 104% and the remaining activity at 3.75 µM ([2]; Well no.=6969) was 106%. It also gave a remaining activity at 3.75 µM ([2]; Well no.=7820) of 104%.
Compound `CC(=O)Nc1ccn([C@@H]2O[C@H](COP(=O)(O)OP(=O)(O)OP(=O)(O)O)[C@@H](O)[C@H]2O)c(=O)n1` [N4-Acetylcytidine triphosphate (sodium)] has a remaining activity at 1.25 µM ([1]; Well no.=7305) of 109%, a remaining activity at 1.25 µM ([1]; Well no.=7964) of 95.2% and a remaining activity at 3.75 µM ([2]; Well no.=7305) of 109%. The remaining activity at 3.75 µM ([2]; Well no.=7964) was 92.1%.
`CN(C)c1ncnc2c1ncn2[C@@H]1O[C@H](CO)[C@@H](O)[C@H]1O` [N6,N6-Dimethyladenosine] gave a remaining activity at 1.25 µM ([1]; Well no.=7854) of 97.9% and a remaining activity at 3.75 µM ([2]; Well no.=7854) of 102%.
With `Nc1ccc(CCNc2ncnc3c2ncn3[C@@H]2O[C@H](CO)[C@@H](O)[C@H]2O)cc1` [N6-2-(4-Aminophenyl)ethyladenosine] the remaining activity at 1.25 µM ([1]; Well no.=162) was 94.9% and the remaining activity at 3.75 µM ([2]; Well no.=162) was 98%.
In the case of `OC[C@H]1O[C@@H](n2cnc3c(NCCc4ccccc4)ncnc32)[C@H](O)[C@@H]1O` [N6-2-Phenylethyladenosine], the remaining activity at 1.25 µM ([1]; Well no.=1453) is reported as 98.5% and the remaining activity at 3.75 µM ([2]; Well no.=1453) is reported as 98.6%.
With `OC[C@H]1O[C@@H](n2cnc3c(NCCc4ccccc4)ncnc32)[C@H](O)[C@@H]1O` [N6-(2-Phenylethyl)adenosine] the remaining activity at 1.25 µM ([1]; Well no.=8431) was 96.1% and the remaining activity at 3.75 µM ([2]; Well no.=8431) was 96.2%.
For `OC[C@H]1O[C@@H](n2cnc3c(NCc4ccc(O)cc4)ncnc32)[C@H](O)[C@@H]1O` [N6-(4-Hydroxybenzyl)adenosine], the remaining activity at 1.25 µM ([1]; Well no.=7233) was 106%, the remaining activity at 1.25 µM ([1]; Well no.=7954) was 101% and the remaining activity at 3.75 µM ([2]; Well no.=7233) was 101%. It also gave a remaining activity at 3.75 µM ([2]; Well no.=7954) of 97.1%.
`OC[C@H]1O[C@@H](n2cnc3c(NC4CCCCC4)ncnc32)[C@H](O)[C@@H]1O` [N6-Cyclohexyladenosine] gave a remaining activity at 1.25 µM ([1]; Well no.=435) of 98.1%, a remaining activity at 1.25 µM ([1]; Well no.=7053) of 96.4% and a remaining activity at 1.25 µM ([1]; Well no.=7952) of 92%. It also gave a remaining activity at 1.25 µM ([1]; Well no.=8083) of 106%, a remaining activity at 3.75 µM ([2]; Well no.=435) of 100% and a remaining activity at 3.75 µM ([2]; Well no.=7053) of 95.5%. The remaining activity at 3.75 µM ([2]; Well no.=7952) was 92.4% and the remaining activity at 3.75 µM ([2]; Well no.=8083) was 105%.
`Cn1cnc2c(NC3CCCC3)ncnc21` [N6-Cyclopentyl-9-methyladenine] showed a remaining activity at 1.25 µM ([1]; Well no.=988) of 96.8% and a remaining activity at 3.75 µM ([2]; Well no.=988) of 99.1%.
For `OC[C@H]1O[C@@H](n2cnc3c(NC4CCCC4)ncnc32)[C@H](O)[C@@H]1O` [N6-Cyclopentyladenosine], the remaining activity at 1.25 µM ([1]; Well no.=330) was 85.8% and the remaining activity at 3.75 µM ([2]; Well no.=330) was 88.2%.
`CCNc1ncnc2c1ncn2[C@@H]1O[C@H](CO)[C@@H](O)[C@H]1O` [N6-Ethyladenosine] gave a remaining activity at 1.25 µM ([1]; Well no.=7906) of 99.5%, a remaining activity at 1.25 µM ([1]; Well no.=8517) of 100% and a remaining activity at 3.75 µM ([2]; Well no.=7906) of 97.7%. For the same compound, the remaining activity at 3.75 µM ([2]; Well no.=8517) was 95.1%.
For `CNc1ncnc2c1ncn2[C@@H]1O[C@H](CO)[C@@H](O)[C@H]1O` [N6-Methyladenosine], the remaining activity at 1.25 µM ([1]; Well no.=930) was 97.7%, the remaining activity at 1.25 µM ([1]; Well no.=8052) was 95.7% and the remaining activity at 3.75 µM ([2]; Well no.=930) was 96.9%. It also gave a remaining activity at 3.75 µM ([2]; Well no.=8052) of 96.2%.
`OC[C@H]1O[C@@H](n2cnc3c(Nc4ccccc4)ncnc32)[C@H](O)[C@@H]1O` [N6-Phenyladenosine] gave a remaining activity at 1.25 µM ([1]; Well no.=1501) of 97.5% and a remaining activity at 3.75 µM ([2]; Well no.=1501) of 100%.
`CC(C)n1cnc2c(NCc3ccccc3)nc(NCCO)nc21` [N9-Isopropylolomoucine] gave a remaining activity at 1.25 µM ([1]; Well no.=716) of 96.5% and a remaining activity at 3.75 µM ([2]; Well no.=716) of 98.5%.
`CC(C)c1ccc(C(=O)N=C(N)N)cc1S(C)(=O)=O` [N''-[4-isopropyl-3-(methylsulfonyl)benzoyl]guanidine] gave a remaining activity at 1.25 µM ([1]; Well no.=5586) of 91.7% and a remaining activity at 3.75 µM ([2]; Well no.=5586) of 91.3%.
`CN(C)C(=O)N=NC(=O)N(C)C` [N,N,N',N'-Tetramethylazodicarboxamide] showed a remaining activity at 1.25 µM ([1]; Well no.=735) of 94.9% and a remaining activity at 3.75 µM ([2]; Well no.=735) of 98.5%.
Compound `CC(COc1ccc(/C=C/c2ccccc2)cc1)[N+](C)(C)C` (stereo not drawn) [N,N,N-trimethyl-1-(4-trans-stilbenoxy)-2-propylammonium iodide] has a remaining activity at 1.25 µM ([1]; Well no.=1531) of 98.1% and a remaining activity at 3.75 µM ([2]; Well no.=1531) of 99.7%.
`CCCCCCN(CCCCCC)C(=O)Cc1c(-c2ccc(F)cc2)[nH]c2ccccc12` [N,N-Dihexyl-2-(4-fluorophenyl)indole-3-acetamide] showed a remaining activity at 1.25 µM ([1]; Well no.=632) of 99.3% and a remaining activity at 3.75 µM ([2]; Well no.=632) of 96.6%.
In the case of `CCCN(CCC)CCc1c[nH]c2ccc(C(N)=O)cc12` [N,N-Dipropyl-5-carboxamidotryptamine maleate], the remaining activity at 1.25 µM ([1]; Well no.=402) is reported as 95.4% and the remaining activity at 3.75 µM ([2]; Well no.=402) is reported as 97.1%.
Work on `COc1cc2nccc(Oc3ccc(NC(=O)Nc4ccc(F)cc4F)c(F)c3)c2cc1OC` [N-(2,4-Difluorophenyl)-N'-[4-[(6,7-dimethoxy-4-quinolinyl)oxy]-2-fluorophenyl]urea] yielded a remaining activity at 1.25 µM ([1]; Well no.=2572) of 92% and a remaining activity at 3.75 µM ([2]; Well no.=2572) of 98.1%.
Work on `Cc1nn(C)c2nc(NNC(=O)Nc3cc(Cl)nc(Cl)c3)cc(C(C)C)c12` [N-(2,6-dichloro-4-pyridinyl)-2-(4-isopropyl-1,3-dimethyl-1H-pyrazolo[3,4-b]pyridin-6-yl)hydrazinecarboxamide] yielded a remaining activity at 1.25 µM ([1]; Well no.=5923) of 104% and a remaining activity at 3.75 µM ([2]; Well no.=5923) of 100%.
`COc1cccc(C(=O)NCCN2CCN(c3ccc(Cl)cc3)CC2)c1` [N-(2-[4-(4-Chlorophenyl)piperazin-1-yl]ethyl)-3-methoxybenzamide] was tested, and the remaining activity at 1.25 µM ([1]; Well no.=232) was 99.5% and the remaining activity at 3.75 µM ([2]; Well no.=232) was 99.4%.
Compound `CCCN(CCC)CC1CCCCN1CCNC(=O)N1c2ccccc2C(=O)Nc2cccnc21` (stereo not shown) [N-(2-{2-[(dipropylamino)methyl]-1-piperidinyl}ethyl)-6-oxo-5,6-dihydro-11H-pyrido[2,3-b][1,4]benzodiazepine-11-carboxamide] has a remaining activity at 1.25 µM ([1]; Well no.=5609) of 101% and a remaining activity at 3.75 µM ([2]; Well no.=5609) of 101%.
